Reference: patent US20080027042A1, “Novel Aminopyridine Derivatives Having Aurora a Selective Inhibitory Action” (priority 2004, published 2008)
Counter-ions that a name gives are not always drawn.

What was measured:
[1] = molecular target: T1, Aurora B (Homo sapiens, UniProt Q96GD4); test: Aurora B inhibitory action (33P-ATP kinase assay, Kemptide substrate); assay type: biochemical; details: 100 μM ATP, 30° C., 20 minutes
T1 construct: histidine tag (N); made in house; host or cells: Escherichia coli BL21-CodonPlus(DE3)-RIL
T1 sequence (Q96GD4 whole entry): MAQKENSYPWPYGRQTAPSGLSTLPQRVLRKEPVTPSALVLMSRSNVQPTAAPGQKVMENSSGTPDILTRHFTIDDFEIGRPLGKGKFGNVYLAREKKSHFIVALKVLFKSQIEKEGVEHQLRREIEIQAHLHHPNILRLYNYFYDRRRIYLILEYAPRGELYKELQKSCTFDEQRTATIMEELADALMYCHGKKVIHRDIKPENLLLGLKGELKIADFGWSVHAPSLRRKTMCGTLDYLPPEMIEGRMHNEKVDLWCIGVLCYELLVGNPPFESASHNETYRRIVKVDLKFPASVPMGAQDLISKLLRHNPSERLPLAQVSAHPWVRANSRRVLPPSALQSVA
Excerpt: Aurora B Inhibitory Action
(1) Purification of Aurora B
(§1) cDNA of Aurora B having histidine tag fused at the amino terminal was integrated into an expression vector, which was then highly expressed in Escherichia coli BL21-CodonPlus(DE3)-RIL cells. The Escherichia coli cells were recovered and solubilized, and then the histidine-tagged […] protein was adsorbed onto a nickel chelate column and eluted from the column with imidazole. The active fraction was desalted with a desalting column to give a pure enzyme.
(2) Measurement of Activity of Aurora B
For measurement of the activity of Aurora B, the substrate used was Kemptide (Lys-Arg-Arg-Ala-Ser-Lys-Gly) (SEQ.ED.NO.: 1), a synthetic peptide purchased from Sigma-Aldrich, Inc. [Certificate of analysis (Upstate, Inc.)].
Reaction was conducted by a partial modification of the method of activity measurement for Aurora A. The amount of the reaction liquid was 21.1 μL, and the composition of the reaction buffer (R2 buffer) was 50 mM Tris-hydrochloride buffer (pH 7.4)/15 mM magnesium acetate/0.2 mM ethylenediamine-N,N,N′,N′-tetraacetate (EDTA). To this, purified Aurora B, 100 μM of a substrate peptide, 100 μM of unlabeled adenosine triphosphate (ATP) and 1 μCi of [γ-^33P] labeled ATP (2,500 Ci/mmole or more) were added, and the mixture was reacted at 30° C. for 20 minutes. Then, 10 μL of 350 mM phosphate buffer was added to the reaction system to stop the reaction. The substrate peptide was adsorbed on a P81 paper filter 96-well plate and then washed with 130 mM phosphate buffer for several times. The radiation activity of the peptide was measured with a liquid scintillation counter. The [γ-^33P] labeled ATP was purchased from Amersham Biosciences Co., Ltd.
(§2) The compound to be tested was added to the reaction system such that a dilution series of the compound in dimethylsulfoxide was first prepared, and 1.1 μL of this solution was added. A control was provided by adding 1.1 μL of DMSO to the reaction system.

[2] = molecular target: T2, Aurora A (Homo sapiens, UniProt O14965); test: Aurora A inhibitory action (33P-ATP kinase assay, Kemptide substrate); assay type: biochemical; details: 20 μM ATP, 30° C., 20 minutes
T2 construct: histidine tag (N); made in house; host or cells: Escherichia coli BL21-CodonPlus(DE3)-RIL
T2 sequence (O14965 1-403): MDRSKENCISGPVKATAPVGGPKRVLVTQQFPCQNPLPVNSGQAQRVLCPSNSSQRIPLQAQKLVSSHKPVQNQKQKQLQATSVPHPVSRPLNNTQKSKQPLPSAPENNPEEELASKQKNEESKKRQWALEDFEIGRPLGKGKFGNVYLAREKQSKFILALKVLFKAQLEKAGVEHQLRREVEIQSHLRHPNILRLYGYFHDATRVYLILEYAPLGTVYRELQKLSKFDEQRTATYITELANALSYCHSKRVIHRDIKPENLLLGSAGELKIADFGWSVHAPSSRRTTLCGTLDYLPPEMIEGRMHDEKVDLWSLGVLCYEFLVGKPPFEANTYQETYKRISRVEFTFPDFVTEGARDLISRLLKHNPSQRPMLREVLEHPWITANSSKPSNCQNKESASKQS
Excerpt: Aurora A Inhibitory Action
(1) Purification of Aurora A
as §1, with “A” for “B”, “BL2 1-CodonPlus(DE3)-RIL” for “BL21-CodonPlus(DE3)-RIL”
(2) Measurement of Activity of Aurora A
For measurement of the activity of Aurora A, the substrate used was Kemptide (Lys-Arg-Arg-Ala-Ser-Lys-Gly) (SEQ.ID.NO.: 1), a synthetic peptide purchased from Sigma-Aldrich, Inc. [Certificate of analysis (Upstate, Inc.)].
Reaction was conducted by a partial modification of a method by Upstate, Inc. [Kinase Profiler™ Assay Protocols]. The amount of the reaction liquid was 21.1 μL, and the composition of the reaction buffer (R2 buffer) was 50 mM Tris-hydrochloride buffer (pH 7.4)/15 mM magnesium acetate/0.2 mM ethylenediamine-N,N,N′,N′-tetraacetate (EDTA). To this, purified Aurora A, 100 μM of a substrate peptide, 20 μM of unlabeled adenosine triphosphate (ATP) and 0.5 μCi of [γ-^33P] labeled ATP (2,500 Ci/mmole or more) were added, and the mixture was reacted at 30° C. for 20 minutes. Then, 10 μL of 350 mM phosphate buffer was added to the reaction system to stop the reaction. The substrate peptide was adsorbed on a P81 paper filter 96-well plate and then washed with 130 mM phosphate buffer for several times. The radiation activity of the peptide was measured with a liquid scintillation counter. The [γ-^33P] labeled ATP was purchased from Amersham Biosciences Co., Ltd.
as §2

Structure (SMILES)	IC50 [1]	IC50 [2]
O=C(c1cc(CN2CCN(C(=O)c3cccc(Cl)c3F)CC2)nc(Nc2nccs2)c1)N1CCCC1 [Example 84, 6-((4-(3-chloro-2-fluorobenzoyl)piperazin-1-yl)methyl)-4-(pyrrolidin 1-ylcarbonyl)-N-thiazol-2-ylpyridin-2-amine trifluoroacetate]	400 nM	0.72 nM
CNC(=O)c1cc(CN2CCN(C(=O)c3cccc(Cl)c3F)CC2)nc(Nc2nccs2)c1 [Example 85, 2-((4-(3-chloro-2-fluorobenzoyl)piperazin-1-yl)methyl)-N-methyl-6-(thiazol-2-ylamino)isonicotinamide trifluoroacetate]	610 nM	1 nM
NC(=O)c1cc(CN2CCN(C(=O)c3cccc(Cl)c3F)CC2)nc(Nc2nccs2)c1 [Example 87, 2-((4-(3-chloro-2-fluorobenzoyl)piperazin-1-yl)methyl)-6-(thiazol-2-ylamino)isonicotinamide trifluoroacetate]	1400 nM	1.2 nM
O=C(NCCO)c1cc(CN2CCN(C(=O)c3cccc(Cl)c3F)CC2)nc(Nc2nccs2)c1 [Example 88, 2-((4-(3-chloro-2-fluorobenzoyl)piperazin-1-yl)methyl)-N-(2-hydroxyethyl)-6-(thiazol-2-ylamino)isonicotinamide trifluoroacetate]	1000 nM	0.72 nM
O=C(c1cccc(Cl)c1F)N1CCN(Cc2cc(Cn3ccnn3)cc(Nc3nccs3)n2)CC1 [Example 90, 6-((4-(3-chloro-2-fluorobenzoyl)piperazin-1-yl)methyl)-N-thiazol-2-yl-4-(1H-1,2,3-triazol-1-ylmethyl)pyridin-2-amine trifluoroacetate]	860 nM	1.5 nM

The remaining lines, values ahead:

IC50 [1]	IC50 [2]	Structure (SMILES)
1200 nM	1.4 nM	O=C(c1cccc(Cl)c1F)N1CCN(Cc2cc(Cn3nccn3)cc(Nc3nccs3)n2)CC1 [Example 91, 6-((4-(3-chloro-2-fluorobenzoyl)piperazin-1-yl)methyl)-N-thiazol-2-yl-4-(2H-1,2,3-triazol-2-ylmethyl)pyridin-2-amine trifluoroacetate]
830 nM	0.93 nM	O=C(c1cccc(Cl)c1F)N1CCN(Cc2cc(Cn3cncn3)cc(Nc3nccs3)n2)CC1 [Example 92, 6-((4-(3-chloro-2-fluorobenzoyl)piperazin-1-yl)methyl)-N-thiazol-2-yl-4-(1H-1,2,4-triazol-1-ylmethyl)pyridin-2-amine trifluoroacetate]
250 nM	0.36 nM	CS(=O)(=O)Cc1cc(CN2CCN(C(=O)c3cccc(Cl)c3F)CC2)nc(Nc2nccs2)c1 [Example 93, 6-((4-(3-chloro-2-fluorobenzoyl)piperazin-1-yl)methyl)-4-((methanesulfonyl)methyl)-N-thiazol-2-ylpyridin-2-amine]
1100 nM	1.1 nM	CN(C)Cc1cc(CN2CCN(C(=O)c3cccc(Cl)c3F)CC2)nc(Nc2nccs2)c1 [Example 94, 6-((4-(3-chloro-2-fluorobenzoyl)piperazin-1-yl)methyl)-4-((dimethylamino)methyl)-N-thiazol-2-ylpyridin-2-amine]
690 nM	0.57 nM	O=C(c1cccc(Cl)c1F)N1CCN(Cc2cc(N3CCCC3=O)cc(Nc3nccs3)n2)CC1 [Example 96, 1-(2-((4-(3-chloro-2-fluorobenzoyl)piperazin-1-yl)methyl)-6-(thiazol-2-ylamino)pyridin-4-yl)pyrrolidin-2-one]
830 nM	0.62 nM	O=C(c1cccc(Cl)c1F)N1CCN(Cc2cc(N3CCOC3=O)cc(Nc3nccs3)n2)CC1 [Example 97, 3-(2-((4-(3-chloro-2-fluorobenzoyl)piperazin-1-yl)methyl)-6-(thiazol-2-ylamino)pyridin-4-yl)-1,3-oxazolidin-2-one]
230 nM	0.36 nM	CN1CCN(c2cc(CN3CCN(C(=O)c4cccc(Cl)c4F)CC3)nc(Nc3nccs3)c2)C1=O [Example 98, 3-(2-((4-(3-chloro-2-fluorobenzoyl)piperazin-1-yl)methyl)-6-(thiazol-2-ylamino)pyridin-4-yl)-3-methylimidazolidin-2-one]
